Marks after values point to notes of the source that are not given here.
Experiments:
[1] = tested on: UTP-stimulated Ca2+ response in HT-29 cells; test: Ca FLIPR TETRA assay, ANTAGONIST mode, stimulation with 0.6 μM UTP; assay type: cell-based, human; settings: Homo sapiens, HT-29 cells, stimulation with 0.6 μM UTP
Method in brief: (§1)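 Inhibition of activator-evoked Ca2+ flux was recorded on FLIPR Tetra in HT-29 cells after 30 min compound exposure at r.t. A prior read checked whether compounds alone triggered Ca2+ release.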

[2] = tested on: Thrombin-stimulated Ca2+ response in HT-29 cells; test: Ca FLIPR TETRA assay, ANTAGONIST mode, stimulation with 1 U/mL Thrombin; assay type: cell-based, human; settings: Homo sapiens, HT-29 cells, stimulation with 1 U/mL Thrombin
Method in brief: as §1

[3] = target: T1, PAR2 (HT-29 cells, trypsin activation) (Homo sapiens, UniProt P55085); test: Ca FLIPR TETRA assay, ANTAGONIST mode, stimulation with 3.1 U/mL trypsin; assay type: cell-based; settings: HT-29 cells, stimulation with 3.1 U/mL trypsin
T1 construct: host or cells: HT-29 cells
T1 sequence (P55085 26-397): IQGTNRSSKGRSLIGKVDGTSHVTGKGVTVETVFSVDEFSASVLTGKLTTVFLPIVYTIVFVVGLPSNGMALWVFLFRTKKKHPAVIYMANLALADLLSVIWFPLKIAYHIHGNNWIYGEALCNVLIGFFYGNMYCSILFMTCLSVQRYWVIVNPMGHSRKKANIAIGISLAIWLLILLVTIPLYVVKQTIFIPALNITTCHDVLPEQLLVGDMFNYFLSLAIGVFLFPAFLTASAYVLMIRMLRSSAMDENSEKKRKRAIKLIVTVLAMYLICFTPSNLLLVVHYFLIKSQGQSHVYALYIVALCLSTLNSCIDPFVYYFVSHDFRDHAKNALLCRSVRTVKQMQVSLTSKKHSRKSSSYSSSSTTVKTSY
Method in brief: as §1

[4] = tested on: carrageenan-induced paw edema; test: Rat carrageenan-induced paw edema model; assay type: in vivo, Sprague Dawley rats; settings: given before carrageenan challenge
Procedure: Male Sprague Dawley rats and BALB/c mice were housed in groups in a temperature controlled room and were acclimatized in the animal facility for at least three days prior to use. Experiments were performed during the light phase of the cycle. Animals have food and water ad libitum.
Example 63: Rat Carrageenan-Induced Paw Edema Model
Peripheral inflammation was induced by intra-plantar administration of 100 ul of a 1% w/volume (in saline) carrageenan solution under isoflurane anesthesia. The degree of swelling was assessed using the plethysmometer at 2-3-4-5-6 h after carrageenan injection. Test compound or vehicle (0.5% MC/0.1% SDS) was systemically administered at the indicated doses in a volume of 5 mL/kg either I-3 hour before carrageenan challenge (Table 9) or 2 hours post carrageenan challenge (Table 10).
Data are expressed as the mean % effect. Statistical significance was assessed using t-test for comparison between naive and inflamed rats, and one-way ANOVA followed by post-hoc comparison test for overall drug effectiveness. A difference between groups is considered significant with a p value of <0.05. *, p<0.05; **, p<0.01; ***, p<0.001 vs. vehicle.

[5] = target: T2, PAR2 (HT-29 cells, SLIGKV activation) (Homo sapiens, UniProt P55085); test: Ca FLIPR TETRA assay, ANTAGONIST mode, stimulation with 8 μM SLIGKV; assay type: cell-based; settings: HT-29 cells, stimulation with 8 μM SLIGKV
T2 construct: host or cells: HT-29 cells
T2 sequence (P55085 26-397): T1 sequence (P55085 26-397)
Method in brief: as §1

[6] = In vivo rat pharmacokinetics (intravenous and oral); settings: plasma; for clearance: intravenous 0.5 to 1 mg/kg, read-out: Clp; for Vd: intravenous, read-out: Vss; for bioavailability: oral by gavage; for half-life: read-out: T ½ (converted)
Procedure: Example 61: Protocol for Testing PAR2 Compounds In Vivo Rat Pharmacokinetics Experiments
Compounds delivered by intravenous route were formulated using a solution formulation consisting of 5% N-methylpyrrolidone 10% Vitamin E-TPGS and 85% water (v/v/) or a solution formulation consisting of 25% N-methylpyrrolidone 35% polyethylene glycol 400 and 40% water (v/v/). Intravenous formulations were administered by a bolus injection (over approximately 10 seconds) using a hypodermic needle attaches to a syringe (tail vein). The dose volume was varied from 1 to 2 mL/kg and the dose was varied from 0.5 to 1 mg/kg. Compounds delivered orally were formulated as a solution formulation consisting of 5% N-methylpyrrolidone 10% Vitamin E-TPGS and 85% water (v/v/) or as fine suspension using a cellulose derivative suspending agent with or without the addition of a wetting agent/surfactant. Milling of large particles was performed as needed to reduce particle size using focused electroacoustic milling, homogenization or low energy media milling. A spray-dried solid dispersion was prepared for key compounds using 1:1 combination with cellulose derivatives. Test compounds were administered orally by gavage using a gavage plastic needle attached to a syringe. The dose volume was varied from 5 to 10 mL/kg and the dose was varied from 1 to 600 mg/kg.
Rats were bled by venipuncture (jugular vein) and the samples were collected into tubes containing K3EDTA. The tubes were placed on wet ice until processed. The samples were centrifuged for approximately 10 minutes (at approximately 4° C.) within approximately 30 minutes of collection to prepare plasma or diluted in citrate buffer (1:3) and stored frozen (approximately −30° C.). Thawed plasma or whole blood samples were extracted by protein precipitation using an organic solvent followed by centrifugation. The supernatants were separated by high-performance liquid chromatography coupled to mass spectrometry detection. A calibration curve was prepared using reference standard compounds spiked into either blank plasma or whole blood matrices and extracted similarly to unknown samples. Pharmacokinetic parameters were calculated using non-compartmental analysis.

| IC50 ([1]; antagonist mode) [nM] | IC50 ([2]; antagonist mode) [nM] | IC50 ([3]; antagonist mode) [nM] | IC50 ([5]; antagonist mode) [nM] | SMILES | % inhibition of carrageenan induced paw edema ([4]; dose 10 mg/kg) | % inhibition of carrageenan induced paw edema ([4]; dose 20 mg/kg) | further results |
| --- | --- | --- | --- | --- | --- | --- | --- |
| – | – | – | – | CC(C)c1cc(-c2ccc(F)cc2)nn2cc(C(=O)N3CCN(C(=O)C4(O)CCOCC4)CC3(C)C)nc12 [Compound I-27, [6-(4-fluorophenyl)-8-isopropyl-imidazo[1,2-b]pyridazin-2-yl]-[4-(4-hydroxytetrahydropyran-4-carbonyl)-2,2-dimethyl-piperazin-1-yl]methanone] | 30% | 33** % | IC50 [1]: 42000 nM; IC50 [2]: 35000 nM; IC50 [3]: 250 nM; % inhibition of carrageenan induced paw edema ([4]; dose 3 mg/kg): 16%; % inhibition of carrageenan induced paw edema ([4]; dose 6 mg/kg): 25* %; % inhibition of carrageenan induced paw edema ([4]; dose 30 mg/kg): 31* %; % inhibition of carrageenan induced paw edema ([4]; dose 60 mg/kg): 30** %; IC50 [5]: 59 nM |
| > 1000 | > 1000 | 0.2 | 0.1 | CC(C)(C)c1cc(-c2ccc(F)cc2)nn2cc(C(=O)N3CCN(C(=O)C4CC(O)(C(F)(F)F)C4)CC3(C)C)nc12 (centres unmarked) [Compound I-199] | – | 52*** % | % inhibition of carrageenan induced paw edema ([4]; dose 7.5 mg/kg): 14%; clearance [6]: 3.2 mL/min/kg; Vd [6]: 4.2 L/kg; bioavailability [6]: 67%; half-life [6]: 18.1 h |
| > 1000 | > 1000 | 5.4 | 3.5 | C[C@@H]1C[C@H](c2cc(-c3ccc(F)cc3)nn3cc(C(=O)N4CCN(C(=O)[C@H]5C[C@](O)(C(F)(F)F)C5)CC4(C)C)nc23)C[C@H](C)O1 [Compound I-213] | – | – | % inhibition of carrageenan induced paw edema ([4]; dose 7 mg/kg): 36* % |
| 420 | 570 | 1.6 | 0.7 | CC(C)(C)c1cc(-c2ccc(F)cc2)nn2cc(C(=O)N3CCN(C(=O)c4nc[nH]n4)CC3(C)C)nc12 [Compound I-227] | 64** % | – | % inhibition of carrageenan induced paw edema ([4]; dose 0.3 mg/kg): 35* % |
| 590 | 590 | 0.8 | 0.6 | CC(C)(C)c1cc(-c2ccc(F)cc2)nn2cc(C(=O)N3CCN(C(=O)c4cn[nH]c4)CC3(C)C)nc12 [Compound I-228] | 48** % | – | – |
| 900 | 890 | 1.4 | 1 | CC(C)(C)c1cc(-c2ccc(F)cc2)nn2cc(C(=O)N3CCN(C(=O)c4c[nH]cn4)CC3(C)C)nc12 [Compound I-232] | 19* % | – | clearance [6]: 16.9 mL/min/kg; Vd [6]: 3.3 L/kg; bioavailability [6]: 75%; half-life [6]: 2.5 h |
| > 1000 | > 1000 | 2 | 1.7 | CC(C)c1cc(-c2ccc(C(F)(F)F)cc2)nn2cc(C(=O)N3CCNC(=O)C3(C)C)nc12 [Compound I-241] | – | – | % inhibition of carrageenan induced paw edema ([4]; dose 7 mg/kg): 17** % |
| > 1000 | > 1000 | 0.7 | 0.6 | Cn1nnc(N2CCN(C(=O)c3cn4nc(-c5ccc(F)cc5)cc(C(C)(C)C)c4n3)C(C)(C)C2=O)n1 [Compound I-249] | 49*** % | – | % inhibition of carrageenan induced paw edema ([4]; dose 30 mg/kg): 26* % |
| > 1000 | > 1000 | 2 | 2.2 | CC(C)(C)c1cc(-c2ccc(C(F)(F)F)cc2)nn2cc(C(=O)N3CCNC(=O)C3(C)C)nc12 [Compound I-283, 4-[8-tert-butyl-6-[4-(trifluoromethyl)phenyl]imidazo[1,2-b]pyridazine-2-carbonyl]-3,3-dimethyl-piperazin-2-one] | – | 19* % | clearance [6]: 1.07 mL/min/kg; Vd [6]: 6.82 L/kg; bioavailability [6]: 76%; half-life [6]: 77.9 h |
| > 1000 | 770 | 1.8 | 1.2 | Cc1nnc(C(=O)N2CCN(C(=O)c3cn4nc(-c5ccc(F)cc5)cc(C(C)(C)C)c4n3)C(C)(C)C2)o1 [Compound I-288] | 48*** % | – | – |
| 670 | 750 | 0.3 | 0.2 | Cc1cc(C(=O)N2CCN(C(=O)c3cn4nc(-c5ccc(F)cc5)cc(C(C)(C)C)c4n3)C(C)(C)C2)[nH]n1 [Compound I-291] | – | – | % inhibition of carrageenan induced paw edema ([4]; dose 5 mg/kg): 37** % |
| 880 | > 1000 | 1 | 0.6 | CC(C)(C)c1cc(-c2ccc(F)cc2)nn2cc(C(=O)N3CCN(c4cn[nH]c4)C(=O)C3(C)C)nc12 [Compound I-310] | – | – | % inhibition of carrageenan induced paw edema ([4]; dose 5 mg/kg): 25** % |
| > 1000 | > 1000 | 2.5 | 2.2 | CC(C)(C)c1cc(-c2ccc(C(F)(F)F)cc2)nn2cc(C(=O)N3CCN(c4cn[nH]c4)C(=O)C3(C)C)nc12 [Compound I-366] | – | 43** % | – |
| > 1000 | > 1000 | 3.2 | 2.5 | Cc1cc(-c2cc(C(C)(C)C)c3nc(C(=O)N4CCN(c5cn[nH]c5)C(=O)C4(C)C)cn3n2)ccc1F [Compound I-417] | – | 32** % | – |
| > 1000 | > 1000 | 0.2 | 0.3 | CC(C)(C)c1cc(-c2ccc(Cl)cc2)nn2cc(C(=O)N3CCN(C(=O)[C@H]4C[C@@](C)(O)C4)CC3(C)C)nc12 [Compound I-421] | −32** % | – | % inhibition of carrageenan induced paw edema ([4]; dose 1 mg/kg): 11%; clearance [6]: 6.15 mL/min/kg; Vd [6]: 3.07 L/kg; bioavailability [6]: 189%; half-life [6]: 9.62 h |
| > 1000 | > 1000 | 3.3 | 2.4 | CC(C)(C)c1cc(C2CCC(F)(F)CC2)nn2cc(C(=O)N3CCN(c4cn[nH]c4)C(=O)C3(C)C)nc12 [Compound I-429] | – | 43** % | – |
| > 1000 | > 1000 | 247 | 116 | Cc1n[nH]c(C(=O)N2CCN(C(=O)c3cn4nc(-c5ccc(F)cc5)cc(C(C)(C)C)c4n3)CC2)n1 [Compound I-525] | – | – | % inhibition of carrageenan induced paw edema ([4]; dose 50 mg/kg): 9% |
